Reference: US20090318290A1, “N-(4-PYRIDIN-2-YLBUTYL) BENZAMIDE DERIVATIVES AND THEIR USE AS FUNGICIDES” (BAYER CROPSCIENCE SA, priority 2006, published 2009)

Test system: Pyrenophora teres
Assay: In vivo test on Pyrenophora teres (barley net blotch)
Settings: dose of 110 ppm; barley plants (Express variety), preventive spray 24 hours before contamination; grading 12 days after contamination
Method: The active ingredients tested are prepared by homogenization in a mixture of acetone/tween/DMSO, then diluted with water to obtain the desired active material concentration.
Barley plants (Express variety), sown on a 50/50 peat soil-pozzolana substrate in starter cups and grown at 12° C., are treated at the 1-leaf stage (10 cm tall) by spraying with the active ingredient prepared as described above. Plants, used as controls, are treated with the mixture of acetone/tween/DMSO/water not containing the active material.
After 24 hours, the plants are contaminated by spraying them with an aqueous suspension of Pyrenophora teres spores (12,000 spores per ml). The spores are collected from a 12-day-old culture. The contaminated barley plants are incubated for 24 hours at about 20° C. and at 100% relative humidity, and then for 12 days at 80% relative humidity.
Grading is carried out 12 days after the contamination, in comparison with the control plants.

O=C(NCCCCc1ncc(C(F)(F)F)cc1Cl)c1ccccc1C(F)(F)F [Compound 1]
efficacy (grading in comparison with the control plants): at least 60%
